Earlier results as cited in patent US8729014B2, “Specific HCV NS3 protease inhibitors” (RFS Pharma, LLC, priority 2010, dated 2014).

Tested on: HepG2 cells
Conditions: HepG2 cells incubated with 10 μM; cited from earlier work

SMILES: O=c1[nH]c(=O)n([C@@H]2O[C@H](CO)[C@@H](O)[C@@H]2F)cc1I [fialuridine, 1,2′-deoxy-2′-fluoro-1-D-arabinofuranosly-5-iodo-uracil]
- morphological changes in mitochondria (electron micrographs): enlarged mitochondria with morphological changes consistent with mitochondrial dysfunction
